This experiment has as its system normal human dermal fibroblast cultures. As to the kind of experiment: Effect on collagen synthesis: incorporation of radioactive proline into fibroblast cultures. The settings on record: for tritiated proline incorporated, cpm (counts per minute): untreated cells 19261 cpm; for tritiated proline incorporation, % relative to untreated cells: untreated cells = 100. Format: cell-based. As for the experimental part:
The study is carried out by measuring the incorporation of radioactive proline into normal human dermal fibroblast cultures. The fibroblast cultures are prepared according to the standard methods of cell culturing, i.e. in MEM/M199 medium sold by the company Gibco, in the presence of sodium bicarbonate (1.87 mg/ml), L-glutamine (2 mM), penicillin (50 IU/ml) and 10% foetal calf serum (Gibco). The test is carried out on cell cultures at 80% confluence on 24-well plates. Cinnamic acid, at a concentration of 10^−4M is placed in contact with the cells for 48 hours. Labelling with tritiated proline (L-[2,3-^3H]-proline sold by Amersham, 33 μCi/ml) is carried out for 24 hours. The level of tritiated proline incorporated is measured at the end of the test by acidic precipitation of the proteins on filters and counting by liquid scintillation. The results are assessed relative to a control consisting of cells which have not been treated with cinnamic acid. A positive control (20 μg/ml of vitamin C), which is known to stimulate collagen synthesis, and a negative control (10^−6M retinoic acid), which is known to inhibit collagen synthesis, are introduced into the test by way of reference.

Setting [1] is: cinnamic acid 10^-4 M, 48 hours contact, 24 hours labelling.
The mark [2] stands for this setting: negative control, 10^-6 M retinoic acid.
The mark [3] stands for this setting: positive control, 20 μg/ml of vitamin C.

Regarding `O=C(O)C=Cc1ccccc1` [Cinnamic acid], the “incorporation of proline into collagen (collagen neosynthesis), result in words” value (cinnamic acid 10^-4 M, 48 hours) is listed as “significantly stimulates the incorporation of proline into collagen”. In addition, under setting [1], the “tritiated proline incorporated, cpm (counts per minute)” value was determined as 26209 cpm and the “tritiated proline incorporation, % relative to untreated cells” value amounted to 136%.
In the case of `CC1=C(/C=C/C(C)=C/C=C/C(C)=C/C(=O)O)C(C)(C)CCC1` [Retinoic acid, retinoic acid], under setting [2], the “tritiated proline incorporated, cpm (counts per minute)” value came to 13160 cpm and the “tritiated proline incorporation, % relative to untreated cells” value was determined as 68%.
In the case of `O=C1O[C@H]([C@@H](O)CO)C(O)=C1O` [Vitamin C, vitamin C], under setting [3], the “tritiated proline incorporated, cpm (counts per minute)” value is on record as 40344 cpm and the “tritiated proline incorporation, % relative to untreated cells” value worked out at 209%.

The values are drawn from patent US20010046509A1, “Use of cinnamic acid or of its derivatives in a cosmetic firming composition” (priority 1997, published 2001).
